What is called melting point is the temperature of the solid-liquid transition. One may read the inhibition as the drop in the measured response relative to a control, in per cent. In general, MIC refers to the least concentration at which growth counts as inhibited.

Converted amounts (≈) assume the structure as drawn. Where two headings read alike, the source gives them in different places.

Results on 16 compounds are retold here after patent US6603046B1, “Bis-aromatic a,β-unsaturated ketones” (Lica Pharmaceuticals A/S, priority 1992, dated 2003).

A short description of data set [1]: Rate of the reaction between N-acetyl-L-cysteine and chalcones, HPLC. In kind it is physicochemical. The note with it: methanol-water-potassium phosphate buffer pH 7.5, 30° C.; first order. An excerpt: The decline of the chalcone concentration was followed by HPLC. The following experimental setups were used: 1. […] 2. […] This system was used i the case of 4′-methoxychalcone. The rate of decline of the chalcone concentration was followed by HPLC. The rate constant was estimated using Grafit and assuming that the reaction followed first order kinetic; i.e.: [c]=[c0]exp(−kt) where [c] is the concentration of the chalcone in question at time t, [c0] is the concentration of the chalcone in question at time zero, k is the rate constant, and t the time.

The test system of data set [2] is chloroquine resistant P. falciparum DD2 strain. Put plainly: In vitro growth of P. falciparum DD2, 3H-hypoxanthine uptake (Example 15). It counts as cell-based, Plasmodium falciparum. To be noted: title: percentage inhibition of 3H-hypoxanthine uptake.
In data set [3] the test system is L. major promastigotes. The data set is described as follows: In vitro growth of L. major promastigotes, 3H-thymidine uptake (Example 4). In kind it is cell-based, Leishmania major. The note with it: in vitro L. major growth test.
Data set [4] concerns P. falciparum. The data set is described as follows: P. falciparum growth in vitro (Table 14.1, strain not stated). In kind it is cell-based. The note with it: Plasmodium falciparum, read-out: inhibition of malaria parasites (middle figure) (converted); for inhibition at 0.5 µg/mL: 0.5 μg/ml; for inhibition at 1 µg/mL: 1 μg/ml; for inhibition at 5 µg/mL: 5 μg/ml; for inhibition at 10 µg/mL: 10 μg/ml. Here is the method: The P. falciparum experimental setup was as described in Example 15.
Testing of the effect of drugs and serum on the in vitro growth of the parasites. The experiments in which compounds were tested for their ability to inhibit parasite growth were performed by a modification of the method originally described by Jensen et al. (1982). Fifty μl of parasitized erythrocytes (parasitemia approximately 1%) in a concentration of 5×10^8/ml and 50 μl of RPMI medium containing different concentrations of the test compound was added to each well of a 96 well flat-bottomed microtiter plate (Nunc). The cultures were then incubated for 48 hours, 24 hours before termination of the culture adding 20 μl of 3-H-hypoxanthine (40 uCi/ml) (New England Nuclear, Boston, Mass., USA) was added to each well. The cultures were then harvested onto glass fiber filters using a Skatron cell harvester (Skatron, Lierbyen, Norway), and the incorporation of 3-H-hypoxanthine into the DNA of dividing parasites was determined by liquid scintillation spectrometry.

Data set [5] relates to chloroquine-sensitive P. falciparum 3D7A strain. The data set is described as follows: In vitro growth of P. falciparum 3D7A, 3H-hypoxanthine uptake (Example 15). In kind it is cell-based, Plasmodium falciparum. The note with it: for IC50: Plasmodium falciparum, read-out: concentration in which growth was retarded by 50%; for Percentage inhibition of 3H-hypoxanthine uptake (mean ± SEM): title: percentage inhibition of 3H-hypoxanthine uptake.

Data set [6] concerns L. major promastigotes. Put plainly: L. major promastigotes from 4-days cultures, 3H-thymidine uptake (Examples 5, 14). It counts as cell-based, Leishmania major. The note with it: Leishmania major, Table 14.1, read-out: percentage inhibition of promastigotes (upper figure); for inhibition at 0.5 µg/mL: 0.5 μg/ml; for inhibition at 1 µg/mL: 1 μg/ml; for inhibition at 5 µg/mL: 5 μg/ml; for inhibition at 10 µg/mL: 10 μg/ml. In outline:
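Promastigotes harvested on day 4 of culture were exposed to compound, then pulsed with 100 μC 3H-thymidine for a further 18 h. Cells were collected on filter paper, washed, and incorporated radioactivity counted by scintillation.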

A short description of data set [7]: 4-Hydroxychalcone toxicity study in mice, i.p. (Example 22). It counts as in vivo, BALB/c female mice. The note with it: for No. died after 24 h: n 4. Here is the method: Mice. BALB/c female mice, 8 weeks old, 20 g body weight.
Drug. 4Hydroxychalcone prepared as in Example 2.
LD50. 80 mg of 4hydroxychalcone was dissolved in 0.2 ml of 99% (v/v) ethanol, and then mixed with 240 mg of Brij 35 dissolved in 19.8 ml of buffer pH 73 (NaH2PO4.H2O 26 mg, Na2HPO4.2H2O 520 mg and distilled water 100 ml), and then sterile filtered through a 0.22 μm Millipore filter. Drug was injected intraperitoneally into mice once.

Data set [8] deals with human lymphocytes. Put plainly: Lymphocyte Proliferation Assay, 3H-thymidine incorporation (Example 13). The note with it: Homo sapiens, Lymphocyte, read-out: inhibition of lymphocytes (lower figure). A general note: Uptake of a labelled nucleoside into DNA is a usual measure of proliferation.
For data set [9], the system named is Strain = H37RV. To be noted: cited from earlier work.
Data set [10] relates to Strain = H37RV. Put plainly: MIC with and without 10% human serum. In kind it is cell-based. The note with it: Mycobacterium tuberculosis, H37RV.
Where [11] appears, read: with 10% Human Serum, read-out: MIC+serum.
[12] abbreviates: without 10% Human Serum, read-out: MIC−serum.

In the case of `C=CCOc1ccc(C(=O)CCc2ccc(OC)cc2OC)cc1`, in [1], the “Estimated rate constant k” value is 0.0011 min⁻¹.
In the case of `C=CC(C)(OC)c1cc(CCC(=O)c2ccc(O)cc2)c(OC)cc1O` (stereo not drawn), the “Estimated rate constant k” value in [1] is 0.00058 min⁻¹.
`C=CCOc1ccc(C(=O)/C=C/c2cccc(OC)c2OC)cc1` [2,3-Dimethoxy-4′-allyloxychalcone, 2,3-dimethoxy-4′-prop-2-enyloxychalcone] returned a melting point of 98 to 99 °C. Further, the “Growth in % of control (mean ± SEM)” value in data set [2] (0.5 μg/ml) was 28.5 ± 9.6%. The “Growth in % of control (mean ± SEM)” value in [2] (1 μg/ml) was determined as 29.6 ± 10.9%. In addition, the “Growth in % of control (mean ± SEM)” value in data set [2] (5 μg/ml) was determined as 22.2 ± 10.1%. Further, in data set [2] (10 μg/ml), the “Growth in % of control (mean ± SEM)” value stood at 49.9 ± 9.1%.
For the compound `C=CCOc1ccc(C(=O)/C=C/c2c(OC)cccc2OC)cc1` [2,6-Dimethoxy-4′-allyloxychalcone, 2,6-dimethoxy-4′-prop-2-enyloxychalcone], the melting point lay in the range of 102 to 103 °C. Also, in [2] (0.5 μg/ml), the “Growth in % of control (mean ± SEM)” value was determined as 23.3 ± 10.9%. The “Growth in % of control (mean ± SEM)” value in [2] (1 μg/ml) turned out to be 24.3 ± 9.5%. The “Growth in % of control (mean ± SEM)” value in [2] (5 μg/ml) was 40.2 ± 8.7%. For the same compound, in data set [2] (10 μg/ml), the “Growth in % of control (mean ± SEM)” value came to 56.7 ± 8.9%.
For `COc1ccc(/C=C/C(=O)c2ccc(O)cc2)cc1OC` [3,4-Dimethoxy-4′-hydroxychalcone, 3,4-dimethoxy-4′-hydroxychalcone], in that order: 193 to 198 °C, 9.3 ± 9.2%, 7.1 ± 8.1%, 48.5 ± 8.4% and 82.6 ± 4.7%.
`CC(C)=CCc1cc(/C=C/C(=O)c2ccc(O)c(CC=C(C)C)c2O)ccc1O` [4,2′,4′-trihydroxy-3,3′-di-(3-methylbut-2-enyl)chalcone]: the “antiparasitic effect in bioassay-guided fractionation” value in data set [3] was “showed major antiparasitic effects”.
Take `O=C(/C=C/c1ccc(O)cc1)c1ccccc1` [4-Hydroxychalcone, 4-hydroxychalcone]: the values for the inhibition at 0.5 µg/mL in data set [4] and in data set [6] were 20.5% and 7%, respectively. For the same compound, the inhibition at 1 µg/mL in [4] is 29.2%; in [6] it was 49.1 ± 16.8%; in data set [8] it was 2.24%. Also, the values for the inhibition at 5 µg/mL in data set [4], in data set [6] and in [8] were 61.3%, 80.1 ± 12.6% and 7.73%, respectively. Also, the figures for the inhibition at 10 µg/mL in data set [4], in data set [6] and in [8] were 88.2%, 91 ± 5.4% and 14.2%, respectively. For the same compound, the IC50 in data set [5] lay in the range of 1 to 5 µg/mL (≈ 4.46 to 22.3 µM). The “Percentage inhibition of 3H-hypoxanthine uptake (mean ± SEM)” value in data set [5] (0.5 μg/ml) turned out to be 20.5 ± 10.9%; in data set [5] (1 μg/ml), 29.2 ± 7.7%; in data set [5] (5 μg/ml), 61.3 ± 10.6%; in [5] (10 μg/ml), 88.2 ± 5.3%. Also, the “No. died after 24 h” value in data set [7] (50 mg/kg i.p.) is recorded as 0; in data set [7] (100 mg/kg i.p.), 0; in [7] (200 mg/kg i.p.) it was 1; in [7] (400 mg/kg i.p.), 2. The “LD50, intraperitoneally” value in data set [7] (mice) turned out to be 400 mg per kg.
`O=C(/C=C/c1ccccc1)c1ccc(O)cc1` [4′-Hydroxychalcone, 4′-hydroxychalcone]: the inhibition at 0.5 µg/mL is 29.9% in [4] and 26.4 ± 6.5% in [6]. In addition, the inhibition at 1 µg/mL is 40.5% in data set [4], 37.3 ± 13.6% in [6] and 3.6% in [8]. Moreover, the inhibition at 5 µg/mL in data set [4] was 64.3%; in [6], 73.4 ± 15.3%; in data set [8], 10.2%. For the same compound, the inhibition at 10 µg/mL in data set [4] was 95.6%; in data set [6], 90.1 ± 6.5%; in data set [8], 17%. Besides, the IC50 in data set [5] was in the range of 1 to 5 µg/mL (≈ 4.46 to 22.3 µM). In addition, the “Percentage inhibition of 3H-hypoxanthine uptake (mean ± SEM)” value in data set [5] (0.5 μg/ml) came to 29.9 ± 10.7%; in data set [5] (1 μg/ml) it was 40.5 ± 11.1%; in [5] (5 μg/ml), 64.2 ± 8.5%; in data set [5] (10 μg/ml), 95.5 ± 1.1%.
Regarding `CC(C)=CCc1c(O)ccc(C(=O)/C=C/c2cc(O)c3c(c2)C=CC(C)(C)O3)c1O` [(A)], the “antiparasitic effect in bioassay-guided fractionation” value in [3] was “Only the latter compound showed major antiparasitic effects”.
As to `CC[C@@H](CO)NCCN[C@@H](CC)CO` [Ethambutol], the protein binding result in data set [9] was “(40% protein”. The minimal inhibitory concentration (MIC) in data set [10] (setting [11]) was found to be 2 µg/mL (≈ 9.79 µM); in data set [10] (setting [12]), 1 µg/mL (≈ 4.89 µM).
With `CC(=O)O[C@H]1C[C@@]2(C)[C@@H](C[C@@H](O)[C@H]3[C@@]4(C)CC[C@@H](O)[C@@H](C)[C@@H]4CC[C@@]32C)/C1=C(\CCC=C(C)C)C(=O)O` [Fusidic acid], the protein binding entry in data set [9] was “(90% protein”. Further, the MIC came out at 32 µg/mL (≈ 61.9 µM) in data set [10] (setting [11]) and 8 µg/mL (≈ 15.5 µM) in [10] (setting [12]).
As for `CC1COc2c(N3CCN(C)CC3)c(F)cc3c(=O)c(C(=O)O)cn1c23` (stereo not drawn) [Ofloxacin], the protein binding result in data set [9] is on record as “(5% protein”. In addition, the MIC in data set [10] (setting [11]) and in data set [10] (setting [12]) was 0.5 µg/mL (≈ 1.38 µM) in each case.
Turning to `O=C(/C=C/c1ccccc1)c1ccccc1` [drawing 102, chalcone, reference compound], the “Estimated rate constant k” value in [1] is 0.034 min⁻¹.
`COc1ccc(C(=O)/C=C/c2ccccc2)cc1` [drawing 103, 4′-methoxychalcone]: in data set [1], the “Estimated rate constant k” value is 0.016 min⁻¹.
On to `COc1ccc(/C=C/C(=O)c2ccccc2)c(OC)c1` [drawing 104], for which, in data set [1], the “Estimated rate constant k” value is 0.0033 min⁻¹.
`O=C(/C=C/c1ccc(O)cc1)c1ccc(O)cc1` [drawing 105]: the “Estimated rate constant k” value in data set [1] was 0.0020 min⁻¹.
